The source made the active and inactive calls. The calls are words filed in the database; no cut-off is given here.
What was measured:
[1] = Toxicity in MPTP induced C57BL/6J mouse neurodegenerative model assessed as no change in spleen weight treated with MPTP for 7 days followed by compound administration at 10 to 30 mg/kg, po measured upto 32 days; format: organism-based; conditions: in vivo, 768 h, dose 10-30 mg/kg, time < 32 day
[2] = biological target: Cytochrome P450 2C9 (Homo sapiens, UniProt P11712); assay: Inhibition of human liver microsome CYP2C9 using 4'-hydroxy diclofenac as substrate incubated for 10 mins by LC/MS/MS analysis; format: microsomes
Sequence of Cytochrome P450 2C9 (P11712 whole entry): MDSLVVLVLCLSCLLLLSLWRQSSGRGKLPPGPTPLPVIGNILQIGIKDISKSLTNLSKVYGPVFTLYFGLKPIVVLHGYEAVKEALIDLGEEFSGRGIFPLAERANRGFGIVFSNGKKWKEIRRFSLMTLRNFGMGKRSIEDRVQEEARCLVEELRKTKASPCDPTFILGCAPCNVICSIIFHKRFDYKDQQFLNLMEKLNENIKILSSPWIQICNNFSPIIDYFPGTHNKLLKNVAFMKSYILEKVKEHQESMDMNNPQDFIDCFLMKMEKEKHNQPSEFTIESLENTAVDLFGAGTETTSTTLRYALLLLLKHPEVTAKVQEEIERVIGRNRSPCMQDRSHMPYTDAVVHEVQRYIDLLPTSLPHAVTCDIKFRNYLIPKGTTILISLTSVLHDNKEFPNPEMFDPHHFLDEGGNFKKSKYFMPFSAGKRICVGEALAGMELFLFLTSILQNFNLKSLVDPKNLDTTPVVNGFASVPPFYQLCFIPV

[3] = Toxicity in MPTP induced C57BL/6J mouse neurodegenerative model assessed as no change in body weight treated with MPTP for 7 days followed by compound administration at 10 to 100 mg/kg, po measured upto 32 days; format: organism-based; conditions: in vivo, 768 h, dose 10-100 mg/kg, time < 32 day
[4] = Unbound fraction in mouse brain by LC-MS/MS analysis relative to control; format: ADME, tissue-based
[5] = tested on: BCRP; assay: Permeability in human Caco-2 expressing BCRP cells across apical to basolateral side by measuring ratio of the final amount of the compound in donor and receiver chambers to the initial amount of the compound in the donor chamber in presence of novobiocin relative to control; format: ADME, cell-based; conditions: Caco-2, with novobiocin (concentration not stated)
[6] = Toxicity in MPTP induced C57BL/6J mouse neurodegenerative model assessed as no change in kidney weight treated with MPTP for 7 days followed by compound administration at 10 to 30 mg/kg, po measured upto 32 days; format: organism-based; conditions: in vivo, 768 h, dose 10-30 mg/kg, time < 32 day
[7] = biological target: Glycogen synthase kinase-3 beta (Homo sapiens) (UniProt P49841); assay: Inhibition of human wildtype full length GSK3 beta expressed in bacterial system at 10 uM relative to control
Sequence of Glycogen synthase kinase-3 beta (Homo sapiens) (P49841 whole entry, looked up): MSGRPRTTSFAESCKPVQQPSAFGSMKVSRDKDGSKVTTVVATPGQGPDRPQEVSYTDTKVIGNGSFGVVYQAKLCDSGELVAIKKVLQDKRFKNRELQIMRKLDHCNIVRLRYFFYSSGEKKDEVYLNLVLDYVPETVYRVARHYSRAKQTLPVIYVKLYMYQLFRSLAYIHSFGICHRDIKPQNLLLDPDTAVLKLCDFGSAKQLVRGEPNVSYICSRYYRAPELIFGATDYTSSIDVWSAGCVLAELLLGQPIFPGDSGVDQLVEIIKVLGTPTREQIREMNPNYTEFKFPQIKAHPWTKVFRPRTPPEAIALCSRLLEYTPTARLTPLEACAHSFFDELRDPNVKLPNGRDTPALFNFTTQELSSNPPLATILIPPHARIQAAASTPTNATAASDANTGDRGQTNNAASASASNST

[8] = tested on: BCRP; assay: Permeability in human Caco-2 expressing BCRP cells across basolateral to apical side by measuring ratio of the final amount of the compound in donor and receiver chambers to the initial amount of the compound in the donor chamber in presence of novobiocin relative to control; format: ADME, cell-based; conditions: Caco-2, with novobiocin (concentration not stated)
[9] = tested on: MDR1; assay: Efflux ratio of apparent permeability across basolateral to apical side to apical to basolateral side in MDCKII expressing MDR1 cells; format: ADME, cell-based, Canis lupus familiaris, MDCK-II; conditions: dog, MDCK-MDR1
[10] = tested on: BCRP; assay: Efflux ratio of apparent permeability across basolateral to apical side to apical to basolateral side in human Caco-2 expressing BCRP cells; format: ADME, cell-based
[11] = tested on: MDR1; assay: Apparent permeability in MDCKII expressing MDR1 cells across apical to basolateral side; format: ADME, cell-based, Canis lupus familiaris, MDCK-II; conditions: dog, MDCK-MDR1; read-out: permeability
[12] = Protein binding in Kunming mouse brain assessed as binding rate by LC-MS/MS analysis relative to control; format: ADME, tissue-based; conditions: read-out: PB (converted)
[13] = AUC (0 to infinity) in Sprague-Dawley rat plasma at 100 mg/kg, iv measured after 0.083 to 24 hrs by HPLC analysis; format: ADME, organism-based; parameters: time lower 0.083 hrs, dose 100 mg/kg, time upper 24 hrs, route iv
[14] = Toxicity in MPTP induced C57BL/6J mouse neurodegenerative model assessed as no change in liver weight treated with MPTP for 7 days followed by compound administration at 10 to 30 mg/kg, po measured upto 32 days; format: organism-based; conditions: in vivo, 768 h, dose 10-30 mg/kg, time < 32 day
[15] = tested on: Mus musculus; assay: In vivo antiinflammatory activity in MPTP induced C57BL/6J mouse neurodegenerative model assessed as decrease in IL-1 beta expression treated with MPTP for 7 days followed by compound administration at 30 mg/kg, po by Western blotting analysis; format: functional, organism-based
[16] = tested on: Mus musculus; assay: Neuroprotective activity in MPTP induced neurodegenerative C57BL/6J mouse model assessed as decrease in tryptophan metabolite NFK in mouse striatum treated with MPTP for 7 days followed by compound administration at 30 mg/kg, po by LC-MS/MS analysis; format: functional, organism-based
[17] = Volume of distribution at steady state in Sprague-Dawley rat plasma at 100 mg/kg, po measured after 0.083 to 24 hrs by HPLC analysis; format: ADME, organism-based; conditions: in vivo, time 0.083-24 hrs
[18] = tested on: Mus musculus; assay: Neuroprotective activity in MPTP induced C57BL/6J mouse neurodegenerative model assessed as decrease in Iba-1 expression in positive neuron cells in brain striatum treated with MPTP for 7 days followed by compound administration at 30 mg/kg, po by IHC staining method; format: functional, organism-based
[19] = biological target: T1, Tryptophan 2,3-dioxygenase (Homo sapiens, UniProt P48775)
T1 sequence (P48775 whole entry): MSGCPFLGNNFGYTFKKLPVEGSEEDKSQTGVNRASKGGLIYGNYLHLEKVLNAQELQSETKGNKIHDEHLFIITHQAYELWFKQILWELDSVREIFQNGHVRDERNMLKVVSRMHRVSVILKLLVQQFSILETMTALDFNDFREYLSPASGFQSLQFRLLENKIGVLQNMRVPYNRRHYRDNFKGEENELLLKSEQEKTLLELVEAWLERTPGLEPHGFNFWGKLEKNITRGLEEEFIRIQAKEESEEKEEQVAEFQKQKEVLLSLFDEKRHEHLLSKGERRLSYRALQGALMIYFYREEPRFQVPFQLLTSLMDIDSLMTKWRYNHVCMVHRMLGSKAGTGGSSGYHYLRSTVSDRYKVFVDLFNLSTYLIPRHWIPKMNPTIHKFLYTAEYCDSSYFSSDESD
Description: Inhibition of human TDO (19 to 388 aa) expressed in Escherichia coli Transetta (DE3) by nanodrop 2000c spectrophotometric analysis

[20] = biological target: T1, Tryptophan 2,3-dioxygenase; assay: Inhibition of TDO in overexpressing human A-172 cells; format: cell-based
[21] = Ratio of drug concentration in unbound brain to unbound plasma in Kunming mouse assessed as blood brain barrier permeability measured at 0.5 to 12 hrs by HPLC analysis; conditions: time 0.5-12 hrs
[22] = tested on: Mus musculus; assay: Neuroprotective activity in MPTP induced C57BL/6J mouse neurodegenerative model assessed as increase in tyrosine hydroxylase expression in positive neuron cells in brain SNpc treated with MPTP for 7 days followed by compound administration at 30 mg/kg, po by IHC staining method; format: functional, organism-based; conditions: Substantia nigra pars compacta
[23] = tested on: Mus musculus; assay: In vivo antiinflammatory activity in MPTP induced C57BL/6J mouse neurodegenerative model assessed as decrease in TNF-alpha expression treated with MPTP for 7 days followed by compound administration at 30 mg/kg, po by Western blotting analysis; format: functional, organism-based
[24] = Toxicity in MPTP induced C57BL/6J mouse neurodegenerative model assessed as no change in lung weight treated with MPTP for 7 days followed by compound administration at 10 to 30 mg/kg, po measured upto 32 days; format: organism-based; conditions: in vivo, 768 h, dose 10-30 mg/kg, time < 32 day
[25] = biological target: Indoleamine 2,3-dioxygenase 1 (Homo sapiens, UniProt P14902); assay: Inhibition of human IDO1 (12 to 403 aa) expressed in Escherichia coli Transetta (DE3) by nanodrop 2000c spectrophotometric analysis
Sequence of Indoleamine 2,3-dioxygenase 1 (P14902 whole entry, the tested form may be a part): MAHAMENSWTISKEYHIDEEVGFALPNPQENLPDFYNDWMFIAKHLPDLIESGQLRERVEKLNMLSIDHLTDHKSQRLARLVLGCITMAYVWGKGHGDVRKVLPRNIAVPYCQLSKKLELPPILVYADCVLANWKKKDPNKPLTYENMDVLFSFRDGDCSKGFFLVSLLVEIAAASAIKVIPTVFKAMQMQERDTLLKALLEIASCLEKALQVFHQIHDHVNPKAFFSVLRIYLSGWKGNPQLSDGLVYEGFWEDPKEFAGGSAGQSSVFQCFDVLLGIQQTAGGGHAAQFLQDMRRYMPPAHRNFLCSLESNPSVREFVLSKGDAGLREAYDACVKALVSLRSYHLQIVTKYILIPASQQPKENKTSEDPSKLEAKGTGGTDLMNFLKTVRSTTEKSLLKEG

[26] = Toxicity in MPTP induced C57BL/6J mouse neurodegenerative model assessed as no change in heart weight treated with MPTP for 7 days followed by compound administration at 10 to 30 mg/kg, po measured upto 32 days; format: organism-based; conditions: in vivo, 768 h, dose 10-30 mg/kg, time < 32 day
[27] = Tmax in Sprague-Dawley rat plasma at 100 mg/kg, po measured after 0.083 to 24 hrs by HPLC analysis; format: ADME, organism-based; conditions: time 0.083-24 hrs
[28] = tested on: Mus musculus; assay: Neuroprotective activity in MPTP induced neurodegenerative C57BL/6J mouse model blood assessed as increase in tryptophan metabolite KYNA treated with MPTP for 7 days followed by compound administration at 30 mg/kg, po by LC-MS/MS analysis; format: functional, organism-based

IC50 [2]: 9.27 µM | Fu [4]: 0.25% | recovery [5]: 43.8% | inhibition [7]: > 90% | recovery [8]: 74.9% | efflux ratio [9]: 0.77 | efflux ratio [10]: 0.56 | Papp A→B [11]: 13.5 ×10⁻⁶ cm/s | fraction unbound [12]: 0.0025 | AUC(0-inf) [13]: 43800 ng·h/mL | Vdss [17]: 25.45 L/kg | IC50 [19]: 0.04 µM | EC50 [20]: 3.03 µM | K(p,uu,brain) [21]: 0.28% | IC50 [25]: 0.64 µM | Tmax [27]: 25.2 min
SMILES: O[C@@H]1CCCC[C@H]1CNc1cc(Br)cc2[nH]ncc12
Activity [1]: Non-Toxic | Activity [3]: Non-Toxic | Activity [6]: Non-Toxic | Activity [14]: Non-Toxic | Activity [15]: Active | Activity [16]: Active | Activity [18]: Active | Activity [22]: Active | Activity [23]: Active | Activity [24]: Non-Toxic | Activity [26]: Non-Toxic | Activity [28]: Active
